Residues, ends and D or L forms follow the SMILES beside them. *: point of attachment. Biotin = O=C1N[C@H]2[C@H](CS[C@H]2CCCCC(=O)*)N1
What was measured:
[1] = tested on: Bio-sTT1Ct-interacting proteins of primary cortical cultures; experiment: Pull-down with biotinylated peptide and label-free proteomics; type: binding, Rattus norvegicus; conditions: pull-down from neuronal-enriched cortical cultures; did not pass the selection criteria
Experimental: Cultures incubated with biotinylated peptides and treated as indicated were lysed at 4°C in NP-40 lysis buffer. Equal protein amounts were combined with streptavidin-agarose beads and incubated for 1.5 h for specifically-bounded protein isolation. Peptides and their interacting proteins were released by incubation at 50°C for 40 min in RIPA modified buffer. Peptide-interacting proteins were collected and subjected to LC-ESI-MS/MS (HR, medium gradient) protein identification using a mass spectrometer (Orbitrap Exploris 240) and Proteome Discoverer software for analysis (CNB Proteomics Facility, CSIC). Further procedure details are provided as Supplementary material.
Cultures were incubated with Bio-TMyc or Bio-sTT1Ct (30 min) before treatment with BDNF (100 ng/ml) or NMDA (100 µM) for 30 additional minutes, or left untreated (Figure 2A). […] Then, proteins interacting with Bio-TMyc and Bio-sTT1Ct were identified by a label free proteomic assay, obtaining a total of 4697 proteins for the three different biological conditions and four independent experiments analyzed. […] Therefore, we evaluated by a Principal Component Analysis (PCA) whether the interactome profiles obtained were different for both peptides (Figure 2B). […]
[…]

Iba1 = experiment: Immunohistochemistry of microglia in ischemic brain; type: in vivo; conditions: male mice, 3 nmol/g, 24 h of insult; versus TMyc
Experimental: The brains of animals injected one hour af ter the initiation of the photothrombotic damage with vehicle (saline), TMyc or TT1Ct (3 nmol/g) were process ed and cryoprote cted as before indicated. The duration of damage before sa cri f i ce was 5 h (male and female) or 24 h (male).
Coronal froze n se ctions were incubated with blocking solution as des cribe d in flota tion for 1 h at room temperature and then overnight with prima ry antibodies diluted in 4% goat se rum and 0.3% Triton X-100 in PBS at 4°C. After was hing, slides were incubated 1 h with Alexa Fluor 546- conjugated goat anti-rabbit or AlexaFluor 647- conjugated goat anti-mouse se condary antibodies to visua liz e the prima ry antibodies and DAPI (5 μg/ml). Only for Iba1 sta ining, blocking solution was 2.5% BS A, 5% goat se rum, 0.5% Triton X-100 in PBS, and se ctions were incubated with prima ry antibody 24 h at RT follow ed by was hing and Alexa Fluor 546-conjugated goat anti-rabbit and DAPI incubation for 1 h. Sections were then was hed in PBS, mounted on slides , dried for 15 min at 37 °C on a hot plate, or air dried overnight and then cover slipped with DPX or Prolong Diamond. Ce ll Obs erve d images were obtained with Zeiss microscope Observe r.Z1 using a 10x Plan-Apochromatic objective. […]

| Compound | Binding of RhoGDI (Arhgdia) to the peptide [1] | Effect on Iba1 in reactive microglia (Iba1) |
| --- | --- | --- |
| CC[C@H](C)[C@H](NC(=O)[C@H](CCCCN)NC(=O)[C@H](Cc1c[nH]cn1)NC(=O)[C@H](Cc1ccccc1)NC(=O)[C@H](CC(C)C)NC(=O)[C@@H](NC(=O)[C@H](Cc1ccccc1)NC(=O)[C@H](CCCNC(=N)N)NC(=O)[C@H](CCCNC(=N)N)NC(=O)[C@H](CCCNC(=N)N)NC(=O)[C@H](CCC(N)=O)NC(=O)[C@H](CCCNC(=N)N)NC(=O)[C@H](CCCNC(=N)N)NC(=O)[C@H](CCCCN)NC(=O)[C@H](CCCCN)NC(=O)[C@H](CCCNC(=N)N)NC(=O)CNC(=O)[C@H](Cc1ccc(O)cc1)NC(=O)CCCC[C@@H]1SC[C@@H]2NC(=O)N[C@@H]21)C(C)C)C(=O)N1CCC[C@H]1C(=O)N[C@@H](CC(C)C)C(=O)N[C@@H](CC(=O)O)C(=O)NCC(N)=O [Bio-sTT1Ct] (Biotin-YGRKKRRQRRRFVLFHKIPLDG-NH2) | very low binding |  |
| Ac-YGRKKRRQRRRPPFVLFHKIPLDG-NH2 [TT1Ct] |  | limited Iba1 upregulation |
